We go through 36 molecules from ChEMBL document CHEMBL4483862, “Open-source discovery of chemical leads for next-generation chemoprotective antimalarials” (2018).

Where only a bound is given, the exact number is not on record here.

The test relates to Plasmodium berghei. The test can be described thus: Luciferase/luciferin-expressing antifolate-resistant parasites were used to infect a culture of HepG2 cells that were pre-incubated with compounds. Infected hepatocytes emit light due to the luciferase reaction. Assay results are presented as the percent inhibition of light emission compared to control. […]. In kind it is functional. The following applies: sporozoite; for IC90: read-out: LUCIFERASE INFECTION ASSAY - IC90.

The mark [1] stands for this setting: read-out: LUCIFERASE INFECTION ASSAY - IC50.

For the molecule `Clc1ccc(-c2nnc(-c3cc(Cl)cc(Cl)c3)o2)cc1`, the IC90 is more than 10.1 µM. Moreover, the IC50 under setting [1] was more than 10.1 µM.

As to `Nc1ccc(C(OC(=O)c2ccc(Cl)cc2Cl)(C(F)(F)F)C(F)(F)F)cc1`, the IC90 is more than 10 µM. The IC50 (PBLUC_HILL_SLOPE 1.55, PBLUC_R_SQUARED 0.496, read-out: LUCIFERASE INFECTION ASSAY - IC50) is 8.08 µM.

For the molecule `CC1(C)CCc2cc(/C=N/NC(=O)c3ccc(Cl)cc3)ccc2O1`, the IC90 was more than 9.63 µM. Further, the IC50 (FFLUC_HILL_SLOPE 0.306, FFLUC_R_SQUARED 0.456, PBLUC_HILL_SLOPE 2.8, PBLUC_R_SQUARED 0.043, read-out: LUCIFERASE INFECTION ASSAY - IC50) amounted to 6.8 µM.

As to `COc1ccc(-c2csc(NC(=O)CN3CCN(c4ncnc5c4cnn5C)CC3)n2)cc1`, the IC90 stood at 3.88 µM. In addition, under “HEPG2TOX_HILL_SLOPE 1.28, 1.59, HEPG2TOX_R_SQUARED 0.849, 0.471, PBLUC_HILL_SLOPE 15.7, 12.8, PBLUC_R_SQUARED 0.495, 0.575, read-out: LUCIFERASE INFECTION ASSAY - IC50”, the IC50 stood at 3.31 µM.

Regarding `CCOc1cc(/C=C(\C#N)C(=O)c2cccc(OC)c2)cc(Cl)c1O`, the IC90 was more than 10 µM. Under setting [1], the IC50 was more than 10 µM.

In the case of `Cc1nn(C(=O)c2c(Cl)cccc2Cl)c(C)c1Cc1c(Cl)cccc1Cl`, the IC90 is more than 7.71 µM. Also, the IC50 (PBLUC_HILL_SLOPE 3.14, PBLUC_R_SQUARED 0.492, read-out: LUCIFERASE INFECTION ASSAY - IC50) amounted to 5.28 µM.

As to `Cc1ccc2nc(NC(=O)c3ccccc3)c(C(=O)NC3CCCC3)n2c1`, the 90% effect concentration (IC90) was determined as 3.58 µM. The IC50 under setting [1] was determined as 3.06 µM.

Take `COc1cc(OC)cc(-c2cn3c(-c4cccc(N(C)C)c4)cnc3cn2)c1`: the IC90 is more than 8.81 µM. Moreover, the IC50 (PBLUC_HILL_SLOPE 11.4, PBLUC_R_SQUARED 0.677, read-out: LUCIFERASE INFECTION ASSAY - IC50) came to 7.8 µM.

With `C=C(C)CNC(=S)N/N=C1\C(=O)Nc2ccc([N+](=O)[O-])cc21`, the IC90 was more than 10 µM. Also, the IC50 (FFLUC_HILL_SLOPE 2.67, FFLUC_R_SQUARED 0.288, PBLUC_HILL_SLOPE 15.8, PBLUC_R_SQUARED 0.124, read-out: LUCIFERASE INFECTION ASSAY - IC50) is 8.97 µM.

Turning to `CC1CC(NC(=O)c2cc3c(=O)n4ccccc4nc3n2C)CC(C)(C)C1` (configuration not stated), the IC90 is 2.74 µM. Where the note is “PBLUC_HILL_SLOPE 172, PBLUC_R_SQUARED 0.0501, read-out: LUCIFERASE INFECTION ASSAY - IC50”, the IC50 worked out at 2.7 µM.

For `COc1ccccc1N(CC(=O)NCC12CC3CC(CC(C3)C1)C2)S(=O)(=O)c1ccccc1`, the IC90 was more than 10 µM. Moreover, the IC50 (HEPG2TOX_HILL_SLOPE 6.27, HEPG2TOX_R_SQUARED 0.869, read-out: LUCIFERASE INFECTION ASSAY - IC50) is more than 10 µM.

As for `Cc1nn2c(NCCCn3ccnc3)cc(C(C)(C)C)nc2c1-c1ccccc1`, the IC90 worked out at 3.07 µM. Moreover, the IC50 (FFLUC_HILL_SLOPE 16.6, FFLUC_R_SQUARED 0.48, HEPG2TOX_HILL_SLOPE 8.1, HEPG2TOX_R_SQUARED 0.76, PBLUC_HILL_SLOPE 15.5, PBLUC_R_SQUARED 0.267, read-out: LUCIFERASE INFECTION ASSAY - IC50) was 2.66 µM.

In the case of `O=C(NCCOc1ccc(Cl)cc1)c1ccc(=O)n(Cc2ccccc2)n1`, the IC90 is more than 10 µM. Moreover, under setting [1], the IC50 is more than 10 µM.

With `C/C(=N\NC(N)=S)c1ccc(CC(C)C)cc1`, the IC90 was more than 13.2 µM. Where the note is “HEPG2TOX_HILL_SLOPE 2.45, HEPG2TOX_R_SQUARED 0.895, PBLUC_HILL_SLOPE 1.49, PBLUC_R_SQUARED 0.577, read-out: LUCIFERASE INFECTION ASSAY - IC50”, the IC50 amounted to 4.2 µM.

On to `O=[N+]([O-])c1cccc(OCC(O)CN2CCN(Cc3nc(-c4ccc(Cl)cc4)no3)CC2)c1` (configuration not stated), for which the IC90 is more than 10 µM. Besides, for the setting “HEPG2TOX_HILL_SLOPE 10.3, HEPG2TOX_R_SQUARED 0.223, PBLUC_HILL_SLOPE 2.57, PBLUC_R_SQUARED 0.732, read-out: LUCIFERASE INFECTION ASSAY - IC50”, the IC50 is 4.59 µM.

In the case of `Fc1ccc(C(Nc2ncnc3ccsc23)c2cccs2)cc1` (configuration not stated), the IC90 is 6.3 µM. Besides, the IC50 (HEPG2TOX_HILL_SLOPE 16.1, HEPG2TOX_R_SQUARED 0.824, PBLUC_HILL_SLOPE 385, PBLUC_R_SQUARED 0.0246, read-out: LUCIFERASE INFECTION ASSAY - IC50) came out at 6.26 µM.

As to `O=C(Nc1ccc(-c2csc(NC(=O)c3c[nH]nc3-c3ccccc3)n2)cc1)c1ccccc1`, the IC90 amounted to 7.36 µM. For the same molecule, the IC50 under setting [1] turned out to be 2.42 µM.

As for `CN(Cc1ccc(C(=O)NC2CC2)cc1)S(=O)(=O)c1ccc(Br)s1`, the IC90 was found to be 9.55 µM. Besides, the IC50 (PBLUC_HILL_SLOPE 16.6, PBLUC_R_SQUARED 0.228, read-out: LUCIFERASE INFECTION ASSAY - IC50) worked out at 8.37 µM.

For `COc1cc(OC)cc(OCC(O)Cn2ccnc2)c1` (configuration not stated), the IC90 was more than 11.9 µM. For the same molecule, the IC50 under setting [1] was more than 11.9 µM.

For the molecule `Cc1ccc(C)c(S(=O)(=O)CCN2C(=O)C(=O)N(Cc3cccs3)C2=O)c1`, the IC90 was more than 10 µM. Moreover, the IC50 under setting [1] was more than 10 µM.

Turning to `CC(C)c1ccc(OCC(=O)Nc2ccccc2C(F)(F)F)cc1`, the IC90 was more than 9.78 µM. In addition, the IC50 under setting [1] was more than 9.78 µM.

With `C=CCn1c(SCC(=O)c2cc(C)n(-c3ccc(OC)cc3)c2C)nc2sc(-c3ccccc3)cc2c1=O`, the IC90 was more than 10 µM. Besides, under setting [1], the IC50 is more than 10 µM.

Take `O=C(CN1C(=O)CSc2ccc(C(F)(F)F)cc21)Nc1ccc(Cl)cc1`: the IC90 turned out to be 3.03 µM. The IC50 (PBLUC_HILL_SLOPE 15.8, PBLUC_R_SQUARED 0.354, read-out: LUCIFERASE INFECTION ASSAY - IC50) stood at 2.64 µM.

As to `CC1CC(C)CN(S(=O)(=O)N2CCN(c3ccc(C(F)(F)F)cc3[N+](=O)[O-])CC2)C1` (configuration not stated), the IC90 is more than 10 µM. Also, under setting [1], the IC50 is more than 10 µM.

Turning to `CCn1cc(C(=O)OCC(=O)N2N=C3/C(=C/c4ccccc4)CCCC3C2c2ccccc2)c(=O)c2ccc(C)nc21` (configuration not stated), the IC90 worked out at 9.47 µM. The IC50 (FFLUC_HILL_SLOPE 4.43, FFLUC_R_SQUARED 0.284, HEPG2TOX_HILL_SLOPE 6.55, HEPG2TOX_R_SQUARED 0.133, PBLUC_HILL_SLOPE 3.84, PBLUC_R_SQUARED 0.345, read-out: LUCIFERASE INFECTION ASSAY - IC50) was found to be 5.34 µM.

`C[S+]([O-])c1ccc(C(F)(F)F)cc1[N+](=O)[O-]` (configuration not stated): the IC90 is more than 13 µM. For the same molecule, the IC50 (HEPG2TOX_HILL_SLOPE 9.53, HEPG2TOX_R_SQUARED 0.815, PBLUC_HILL_SLOPE 1.65, PBLUC_R_SQUARED 0.298, read-out: LUCIFERASE INFECTION ASSAY - IC50) is 11.1 µM.

As for `Cc1ccc(NNC(=O)c2cc3ccccc3o2)cc1Cl`, the IC90 was more than 10 µM. Moreover, the IC50 (PBLUC_HILL_SLOPE 2.35, PBLUC_R_SQUARED 0.383, read-out: LUCIFERASE INFECTION ASSAY - IC50) came out at 6.24 µM.

In the case of `COc1ccc(C(C)C)cc1-c1cnc(N)c(-c2ccc(O)cc2)c1`, the IC90 turned out to be 3.69 µM. The IC50 (HEPG2TOX_HILL_SLOPE 2.7, HEPG2TOX_R_SQUARED 0.932, PBLUC_HILL_SLOPE 18.7, PBLUC_R_SQUARED 0.395, read-out: LUCIFERASE INFECTION ASSAY - IC50) stood at 3.28 µM.

As to `O=C(Nc1ccc(Oc2cc(C(F)(F)F)cc(C(F)(F)F)c2)cc1)c1cccs1`, the IC90 came out at 0.356 µM. Moreover, under “PBLUC_HILL_SLOPE 1.36, PBLUC_R_SQUARED 0.733, read-out: LUCIFERASE INFECTION ASSAY - IC50”, the IC50 came to 0.0707 µM.

As to `FC(F)(F)c1cc(NC(=S)N2CCC(CCCC3CCN(C(=S)Nc4cc(C(F)(F)F)cc(C(F)(F)F)c4)CC3)CC2)cc(C(F)(F)F)c1`, the IC90 was more than 4.38 µM. For the same molecule, the IC50 (FFLUC_HILL_SLOPE 260, FFLUC_R_SQUARED 0.348, HEPG2TOX_HILL_SLOPE 8.4, HEPG2TOX_R_SQUARED 0.678, PBLUC_HILL_SLOPE 17.9, PBLUC_R_SQUARED 0.0888, read-out: LUCIFERASE INFECTION ASSAY - IC50) is more than 4.38 µM.

For the molecule `O=C(CN(Cc1ccccc1)S(=O)(=O)c1ccc(Cl)cc1)Nc1nnc(C(F)(F)F)s1`, the IC90 is 3.96 µM. Moreover, the IC50 (HEPG2TOX_HILL_SLOPE 2.23, HEPG2TOX_R_SQUARED 0.869, PBLUC_HILL_SLOPE 13.4, PBLUC_R_SQUARED 0.351, read-out: LUCIFERASE INFECTION ASSAY - IC50) was 3.37 µM.

On to `CC(Sc1nnc(-c2ccc[nH]2)o1)C(=O)c1ccc(C(C)(C)C)cc1` (configuration not stated), for which the IC90 was more than 10 µM. The IC50 (PBLUC_HILL_SLOPE 11.5, PBLUC_R_SQUARED 0.42, read-out: LUCIFERASE INFECTION ASSAY - IC50) is 8.92 µM.

`CCN(CC)Cc1ccc(OCC(=O)Nc2ccc(Cl)cc2)c2ncccc12`: the IC90 is more than 10 µM. Also, the IC50 (FFLUC_HILL_SLOPE 1.82, FFLUC_R_SQUARED 0.795, HEPG2TOX_HILL_SLOPE 1.24, HEPG2TOX_R_SQUARED 0.929, read-out: LUCIFERASE INFECTION ASSAY - IC50) is more than 10 µM.

For the molecule `CCCN(CC(=O)Nc1ccccc1C)C(=O)Cn1nnc2ccccc21`, the IC90 was more than 10 µM. Moreover, the IC50 under setting [1] was more than 10 µM.

For the molecule `O=C(/C=C/c1csc(-c2ccc(Cl)cc2)n1)c1cccc(O)c1`, the IC90 is 4.93 µM. Besides, the IC50 (PBLUC_HILL_SLOPE 11.6, PBLUC_R_SQUARED 0.644, read-out: LUCIFERASE INFECTION ASSAY - IC50) is 4.08 µM.

Regarding `Cc1ccc(-c2csc(NC(=O)C3CCN(c4ncnc5sc(C)c(C)c45)CC3)n2)cc1`, the IC90 came to 1.74 µM. Moreover, where the note is “FFLUC_HILL_SLOPE 3.71, FFLUC_R_SQUARED 0.648, HEPG2TOX_HILL_SLOPE 2.17, HEPG2TOX_R_SQUARED 0.62, PBLUC_HILL_SLOPE 8.52, PBLUC_R_SQUARED 0.61, read-out: LUCIFERASE INFECTION ASSAY - IC50”, the IC50 amounted to 1.35 µM.

What is called IC50 is the point on the concentration scale where inhibition reaches its midpoint. In general, IC90 refers to the point of the concentration-response curve where the effect stands at 90%.
